Test results taken from patent publication US8911953B2, “TDF-related compounds and analogs thereof, analogs and bioactive fragments” (Thrasos Innovation, Inc., priority 2005, dated 2014).
Entries after “also recorded” stand apart in the source; their conditions may differ. Positions of bridges follow the written chain, without caps; N, C: chain ends. No end group written: not given here.

Columns and labels:
[1] = tested on: cisplatin-treated Sprague-Dawley rats; assay: Rat cisplatin model of acute kidney injury; type: in vivo; details: for ICAM-1 in kidney sections: anti-ICAM-1 staining; for ICAM-1 in kidney sections / proliferating cells / cellular regeneration (PCNA) / macrophages accumulating in the kidneys: b674: 2.8 mg/kg bw; for proliferating cells / cellular regeneration (PCNA): anti-PCNA staining; for macrophages accumulating in the kidneys: macrophage-specific marker
Source text: The rat cisplatin model has been studied extensively and is considered a relevant model for human acute kidney injury. Kidneys from cisplatin-treated animals show little evidence of cell proliferation. In contrast, animals that are protected or are able to recover from the nephrotoxic effects of cisplatin treatment show proliferation as detected by anti-proliferating cell nuclear antigen or PCNA antibodies. This model provides a mechanism for identifying agents that can protect the kidney from inflammatory cytokine-mediated injury, as well as, in repairing organ damage. Macrophages infiltrate the kidneys of animals treated with cisplatin and this early marker of nephropathy can be detected using anti CD-68 antibodies. Agents that decrease the number of macrophages in kidneys and prevent inflammatory cell-mediated damage associated with cisplatin treatment can be detected using immuno-histological analysis. Kidney sections treated with agents that show increased expression of α-actin in smooth muscle cells (SMC) are indicative of protecting the in integrity of SMC and alleviating injurious damage to the kidney.
Male Sprague-Dawley rats (˜250 gm) are injected ip with 5 mg/kg cisplatin (1 mg/ml in water) at time zero to induce acute renal failure. In this model, clinical signs (rise in serum creatinine) peaks at 4 to 5 days. The test compound and control substances were administered iv via the tail vein as 0.5 ml slow bolus injections. The negative control substance was the vehicle (PBS pH 7.2+5% Mannitol), while the positive control therapy was recombinant human mature BMP-7 (BMP-7 or TDF-1). The end points are serum creatinine and BUN levels and histology.
TDFRP Compound (SEQ ID NO:45) was tested in male Sprague-Dawley rats (250 gm to 300 gm) to establish the dose range and the extent to which the compound is able to prophylactically and therapeutically ameliorate the renal toxic effects of cisplatin. The cisplatin dosing level was the chemotherapeutic level used in humans, 40 ug/kg bw. The end points were the level of creatinine in serum and kidney histology. […]
A stock solution (70 mg/ml) of TDFRP (SEQ ID NO:45) was made by dissolving it in 20 mM Acetate (ph 4.2). The stock solution was further diluted into phosphate buffered saline (PBS, pH 7.2) plus 5% Mannitol to compound concentrations of 14 mg/ml (28 mg/kg dose), 1.4 mg/ml (2.8 mg/kg dose) and 0.14 mg/ml (0.28 mg/kg dose).
Cisplatin was administered via i.p. injection (40 ug/kg bw) at time zero. Administration of therapeutic dosing of the compound, the BMP-7 positive control and vehicle negative control were by slow bolus i.v. injection through the tail vein at five time points: 2 hours before the administration of cisplatin, then at 24 hours, 48 hours, 72 hours and 96 hours post cisplatin administration. Blood samples were collected through the tail vein at time points of 0, 24, 48, 72 and 96 hours. At seven day sample was collected by exsanguination at sacrifice. Serum was prepared from the blood samples and analyzed for creatinine concentration. The serum concentration of creatinine, a byproduct of muscle activity that is released into the blood stream and cleared through the kidneys, is a marker of kidney function that tends to rise when kidney function becomes severely compromised (FIG. 21).
Upon sacrifice at seven days, the kidneys were harvested, fixed in formalin and imbedded in paraffin. They were then sagitally sectioned and stained in H&E stain. Kidney sections were also stained with anti-bodies against proliferating cell nuclear antigen (PCNA) (to identify sites of cell regeneration), macrophages, I-CAM-1, and smooth muscle. Also collected at sacrifice were tissues at and around the injection site (FIGS. 22, 25, 26).

[2] = tested on: UUO mice; assay: Unilateral ureteral obstruction (UUO) mouse model of chronic renal injury; type: in vivo
Procedure: Schematic of the unilateral urinary obstruction (UUO) mouse model of chronic renal injury. One ureter was ligated on Day 0 (D0) and mice received one of the following treatments: vehicle (control), BMP-7 by intraperitoneal (ip) administration (positive control) or TDFRP by ip, intravenous (iv) or oral (po) administration. Mice were sacrificed on Day 5 (D5) or Day 7 (D7) and the kidneys were evaluated for disease pathology.
Unilateral ureteral obstruction (UUO) is a model resembling human obstructive nephropathy, which represents an inducible chronic model of interstitial fibrosis. UUO is induced by ligation of one ureter, leaving the contra-lateral kidney to serve as a control. As a result of the procedure, mice develop renal tubulointerstitial inflammation, tubulointerstitial fibrosis and tubular atrophy, without hypertension, proteinuria, lipid dysregulation and little glomerular damage contributing to the disease state (Ito et al (2004). J. Urol. February; 171(2 Pt 1): 926-30.; Bhangdia et al. (2003) J. Urol. November; 170(5): 2057-62.; Rawashdeh et al. (2003) Invest Radiol. 2003 March; 38(3): 153-8.; Hruska et al (2000) Am J Physiol Renal Physiol. 2000 July; 79(1): F130-43.). Furthermore, renal fibrosis is associated with alteration of epithelial and fibroblastic cells to myofibroerblasts, along with increased expression of TGF-beta and progressive loss of renal function.

Q: For “CYFDDSSNVLCKKYRS (disulfide 1-11 (inferred); not fully specified) [SEQ ID NO:45]”, which “tubule structure of the kidney (H&E sections)” value ([1]; 2.8 mg/kg b.w.) is on record?
A: Its value is “improved”.

Q: What about the “cisplatin-induced inflammation of the kidney cortex” value ([1]; 2.8 mg/kg bw) of the same molecule?
A: The value was “significantly reduced”.

Q: What about the smooth muscle loss ([1]; 2.8 mg/kg bw) of the same molecule?
A: Its smooth muscle loss is “reduced”.

Q: And the “serum creatinine at the highest dose” value ([1]; 28 mg/kg bw i.v.)?
A: Its value is “more efficacious than the positive control; also recorded: return closer to base-line levels”.

Q: What about the “cisplatin-induced level of creatinine in serum” value ([1]; 0.28, 2.8 and 28 mg/kg bw i.v.) of the same molecule?
A: Its value is “reduces”.

Q: What about the “ICAM-1 in kidney sections” value [1] of the same molecule?
A: The value was “reduced”.

Q: What about the “ICAM-1 in kidney sections” value ([1]; listed as SEQ ID NO 45) of the same molecule?
A: The value was “less ICAM-positive material”.

Q: What about the “proliferating cells / cellular regeneration (PCNA)” value [1] of the same molecule?
A: The value was “increased the degree of cellular regeneration”.

Q: And the “proliferating cells / cellular regeneration (PCNA)” value ([1]; listed as SEQ ID NO 45)?
A: The value was “Proliferating cells are observed”.

Q: What about the “macrophages accumulating in the kidneys” value [1] of the same molecule?
A: The value was “reduced”.

Q: What about the “macrophages accumulating in the kidneys” value ([1]; listed as SEQ ID NO 45) of the same molecule?
A: Its value is “less macrophages”.

Q: And the “nephrotoxic effects of cisplatin exposure” value ([1]; rat, in vivo)?
A: Its value is “reduce or ameliorate”.

Q: And the “renal tubular morphology (tubular atrophy, necrosis and dilation)” value ([1]; rat, in vivo)?
A: The value was “improved the morphology and structure of the kidney tubules”.

Q: And the “severity of tubular damage (percent of renal tubular degradation)” value ([2]; 5-day model, administered orally, ip or iv)?
A: The value was “attenuated the severity of tubular damage”.

Q: What about the “progression of tubulointerstitial fibrosis disease” value ([2]; 5-day model, oral 5 mg/kg/24 hours or iv 50 mg/kg/24 hours) of the same molecule?
A: The value was “attenuated progression”.

Q: And the “progression of tubulointerstitial fibrosis disease” value ([2]; 7-day model, oral or iv 5 mg/kg/24 hours)?
A: The value was “significantly attenuated”.

B1: BMP-7: recombinant human mature BMP-7 (BMP-7 or TDF-1), positive control therapy (protein)
chain: STGSKQRSQNRSKTPKNQEALRMANVAENSSSDQRQACKKHELYVSFRDLGWQDWIIAPEGYAAYYCEGECAFPLNSYMNATNHAIVQTLVHFINPETVPKPCCAPTQLNAISVLYFDDSSNVILKKYRNMVVRACGCH
Q: With B1 as the molecule, how does the “peak serum creatinine levels in response to cisplatin” value ([1]; BMP-7 30 ug/kg bw and 200 ug/kg bw) read?
A: The value was “lower peak serum creatinine levels”.

Q: What about the “renal tubular morphology (tubular atrophy, necrosis and dilation)” value ([1]; rat, in vivo) of the same molecule?
A: The value was “Improvement of Renal Tubular Morphology”.

Q: What about the chronic renal injury ([2]; 5-day model, ip 300 ug/kg/48 hours) of the same molecule?
A: The chronic renal injury was “Reversal”.

Q: And the “UUO chronic renal injury” value ([2]; 7-day model, ip 300 ug/kg/48 hours)?
A: Its value is “Reversal”.
